In patent US20050181473A1, “Bacterial adpglucose pyrophospatase method for obtaining the latter and its use in the production of assay devices and in the obtention of transgenic plants and bacteria” (priority 2001, published 2005):
“Also recorded” adds a separate entry of the source.

The compounds below were run against bacterial AGPPase (Escherichia coli, UniProt Q93K97, L2V/N6S). Details: not given.
Assay type: biochemical

Sequence of bacterial AGPPase (Q93K97 whole entry L2V/N6S, looked up): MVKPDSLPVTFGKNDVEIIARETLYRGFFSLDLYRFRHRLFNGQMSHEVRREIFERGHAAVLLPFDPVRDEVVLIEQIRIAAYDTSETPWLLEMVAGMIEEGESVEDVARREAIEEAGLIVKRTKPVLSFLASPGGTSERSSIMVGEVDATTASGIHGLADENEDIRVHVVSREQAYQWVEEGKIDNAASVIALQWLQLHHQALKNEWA

Row | SMILES | inhibition of AGPPase | AGPPase activity affected by reducing and chelating agents | requirement for optimum functioning of AGPPase
1 | Nc1ncnc2c1ncn2[C@@H]1O[C@H](COP(=O)(O)OP(=O)(O)O)[C@@H](O)[C@H]1O [ADP] | Inhibited | – | –
2 | O=C(O)[C@H](O)COP(=O)(O)O [3-phosphoglycerate] | Inhibited | – | –
3 | O=P(O)(O)OP(=O)(O)O [inorganic pyrophosphate] | Inhibited | – | –
4 | Nc1ncnc2c1ncn2[C@@H]1O[C@H](COP(=O)(O)O)[C@@H](O)[C@H]1O [AMP] | Inhibited | – | –
5 | [O]=[Mo](=[O])([O-])[O-] [molybdate] | strongly inhibited; also recorded: Inhibited strongly | – | –
6 | O=C(O)CN(CCN(CC(=O)O)CC(=O)O)CC(=O)O [EDTA] | – | adversely affected | –
7 | O=P(O)(O)O [orthophosphate] | not | – | –
8 | [Mg+2] [magnesium] | – | – | requires
9 | Nc1ncnc2c1ncn2[C@@H]1O[C@H](COP(=O)(O)OP(=O)(O)OP(=O)(O)O)[C@@H](O)[C@H]1O [ATP] | Inhibited | – | –
10 | N[C@@H](CCC(=O)O)C(=O)O [glutamate] | – | adversely affected | –
11 | N[C@@H](CS)C(=O)O [reduced cysteine] | – | adversely affected | –
12 | OCCS [β-mercaptoethanol] | – | adversely affected | –
13 | N[C@@H](CCC(=O)N[C@@H](CS)C(=O)NCC(=O)O)C(=O)O [reduced glutathione] | – | adversely affected | –

Same assay, conditions: 37° C., Tris-HCl 50 mM pH 7.5, 5 mM MgCl2

Row | SMILES | hydrolysis / recognition as substrate by AGPPase
14 | Nc1ncnc2c1ncn2[C@@H]1O[C@@H]2COP(=O)(O)O[C@H]2[C@H]1O [cyclic AMP] | Nor does it hydrolyze

Same assay, conditions: pH 7.5

Row | SMILES | hydrolysis / recognition as substrate by AGPPase
15 | O=C(O)[C@H](O)COP(=O)(O)O [3-phosphoglycerate] | does not hydrolyze
16 | Nc1ncnc2c1ncn2[C@@H]1O[C@H](COP(=O)(O)O)[C@@H](O)[C@H]1O [AMP] | does not hydrolyze
17 | O=P(O)(O)O[C@H]1O[C@H](CO)[C@@H](O)[C@H](O)[C@H]1O [G1P, glucose-1-phosphate] | does not hydrolyze
18 | Nc1ncnc2c1ncn2[C@@H]1O[C@H](COP(=O)(O)OP(=O)(O)O[C@H]2O[C@H](CO)[C@@H](O)[C@H](O)[C@@H]2O)[C@@H](O)[C@H]1O [ADPmannose] | recognizes; also recorded: hydrolyzes
19 | Nc1nc2c(ncn2[C@@H]2O[C@H](COP(=O)(O)OP(=O)(O)O[C@H]3O[C@H](CO)[C@@H](O)[C@H](O)[C@@H]3O)[C@@H](O)[C@H]2O)c(=O)[nH]1 [GDPmannose] | does not recognize
20 | Nc1ncnc2c1ncn2[C@@H]1O[C@H](COP(=O)(O)OP(=O)(O)OC[C@H]2OC(O)[C@H](O)[C@@H]2O)[C@@H](O)[C@H]1O (stereo partly drawn) [ADPribose] | recognizes; also recorded: hydrolyzes
21 | O=[N+]([O-])c1ccc(OP(=O)(O)Oc2ccc([N+](=O)[O-])cc2)cc1 [bis-paranitrophenyl-phosphate] | does not hydrolyze
22 | O=C[C@H](O)[C@@H](O)[C@H](O)[C@H](O)COP(=O)(O)O [G6P, glucose-6-phosphate] | does not hydrolyze
23 | Nc1ncnc2c1ncn2[C@@H]1O[C@H](COP(=O)(O)OP(=O)(O)O[C@H]2O[C@H](CO)[C@@H](O)[C@H](O)[C@H]2O)[C@@H](O)[C@H]1O [ADPG, ADPglucose] | catalyzes the hydrolysis
24 | O=C(O)[C@H]1O[C@H](OP(=O)(O)OP(=O)(O)OC[C@H]2O[C@@H](n3ccc(=O)[nH]c3=O)[C@H](O)[C@@H]2O)[C@H](O)[C@@H](O)[C@@H]1O [UDPglucuronic] | does not recognize
